# Experimental data as given in patent US10654890B2, “Cyclic peptide derivative, method for preparing same and composition thereof” (priority 2014, dated 2020).
# What was measured:
# [1] = test system: senescence-accelerated model mouse SAMP8; test: Damaged area ratio of body hair surface by scanning probe microscope; type: in vivo
# Description: As for the apparatus, tapping mode scanning probe microscope (SPM: SPA400, Hitachi High-Tech Science Corporation) was used.
# As a sample, body hair in head and neck part of a mouse was collected by plucking from the origin, and the observation was made by using the tapping mode scanning probe microscope described above.
# [2] = test system: human leukemia cells (K562); test: Cell proliferation test, human leukemia cells; type: cell-based; settings: 2.5 μM and 25 μM, FIG. 10
# Method: (§1) To see whether or not the astrocyte proliferation accelerating activity of the cyclic peptide derivative is a specific proliferative activity that is limited only to an astrocyte or it is based on a common cell proliferative activity, investigations were made by using normal human dermal fibroblasts (NHDF), human liver cancer cells (HepG2), and human leukemia cells (K562).
# (§2) Seeding of each cell on a 96 well plate was carried out by adding 100 μl of a cell suspension in which normal human dermal fibroblasts are prepared at 2.5×10^4 cells/ml or human liver cancer cells and human leukemia cells are prepared at 5×10^4 cells/ml. Since the cyclic peptide derivative is added after dissolving it in PBS (−), only PBS (−) was added as a control.
# [3] = test system: human liver cancer cells (HepG2); test: Cell proliferation test, human liver cancer cells; type: cell-based; settings: 2.5 μM and 25 μM, FIG. 10
# Method: as §1, §2
# Water solubility = type: physicochemical
# VGF gene = VGF gene expression in culture astrocyte (real time PCR); type: cell-based, mouse; settings: 25 μM; from 8 hours to 24 hours after the addition; p<0.05 vs before the addition; calibrated to GAPDH
# Method: By adding the cyclic peptide derivative of 25 μM to an astrocyte of the secondary subculture, the influence on expression of the gene of NGF, GDNF, VFGF-A, BDNF, and VGF as a representative neurotrophic factor was determined over time.
# Except that a cell suspension of an astrocyte of the secondary subculture was prepared to have cell concentration of 3×10^5 cells/ml and the time for exposing the astrocyte to the above 25 μM cyclic peptide derivative was set at 0, 1, 2, 4, 8, 12, and 24 hours, the astrocyte was cultured in the same order as above <6>. As a control group, LG-D-MEM (0% FBS) not added with any cyclic peptide derivative was used.
# Each astrocyte which has been exposed to the cyclic peptide derivative during each time described above was collected, and then, by using RNeasy Mini Kit (QIAGEN), extraction and purification of total RNA were carried out. The extracted total RNA was quantified by using Nano Photometer (IMPLEN). For the reverse transcription reaction, cDNA was synthesized by reacting 500 ng of total RNA with PrimeScript RT Master Mix (TaKaRa) at 37° C. for 15 minutes using GeneAmp PCR System 9600 (PERKIN ELMER), and the reaction was terminated by heating for 5 seconds at 85° C. […]
# [4] = biological target: acetylcholine esterase (AChE) (Homo sapiens, UniProt P22303); test: Acetylcholine esterase inhibitory activity test; type: biochemical; settings: 1000 nM; FIG. 11
# Description: Most of existing therapeutic agents for Alzheimer's disease have, as a target mechanism, the inhibitory activity for an acetylcholine esterase which is an enzyme for decomposing acetylcholine as a neurotransmitter. Namely, by inhibiting an acetylcholine esterase, the therapeutic agents for Alzheimer's disease increase an in vivo concentration of acetylcholine.
# Chain of acetylcholine esterase (AChE) (P22303 32-614): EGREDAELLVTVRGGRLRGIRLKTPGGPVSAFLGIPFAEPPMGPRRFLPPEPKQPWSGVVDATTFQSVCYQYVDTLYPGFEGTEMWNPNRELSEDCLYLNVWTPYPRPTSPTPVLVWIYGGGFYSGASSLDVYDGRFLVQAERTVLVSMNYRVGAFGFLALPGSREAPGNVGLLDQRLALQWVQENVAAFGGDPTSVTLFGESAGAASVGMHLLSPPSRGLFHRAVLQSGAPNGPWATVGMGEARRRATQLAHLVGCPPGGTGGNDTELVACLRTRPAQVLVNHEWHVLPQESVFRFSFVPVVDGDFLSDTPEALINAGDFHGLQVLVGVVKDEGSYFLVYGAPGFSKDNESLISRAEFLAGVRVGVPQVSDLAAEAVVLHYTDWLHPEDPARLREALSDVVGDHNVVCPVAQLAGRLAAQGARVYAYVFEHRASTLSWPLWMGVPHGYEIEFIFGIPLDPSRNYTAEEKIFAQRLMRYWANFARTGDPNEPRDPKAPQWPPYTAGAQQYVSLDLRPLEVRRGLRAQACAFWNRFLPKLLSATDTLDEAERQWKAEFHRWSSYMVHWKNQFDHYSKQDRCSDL
smiles,measurement,setting,value
CCC1(C)Oc2cc(ccc2O)C(O)C(NC)C(=O)NC(C(C)C)C(=O)NC1C(=O)NC(CCC(=O)O)C(=O)O (stereo not shown) [cyclic peptide derivative],damage ratio on a surface of mouse body hair,"[1]; SAMP8, oral 2.5 μg/kg/day",lowered to the same level as those of a mouse with normal aging
same,damage ratio on a surface of mouse body hair,"[1]; SAMP8, oral 25 μg/kg/day",lowered to the same level as those of a mouse with normal aging
same,inhibitory activity on cell proliferation,[2],a strong inhibitory activity on cell proliferation was observed
same,inhibitory activity on cell proliferation,[3],a strong inhibitory activity on cell proliferation was observed
same,water solubility,Water solubility,water soluble
same,expression of the gene of VGF,VGF gene,increased
same,AChE inhibitory activity,[4],absolutely no AChE activity was observed
